Experimental data: the supplement of paper PMC10307832

Columns and labels:
Test in all cases: relative viability (nuclei count vs DMSO), 5 days (fraction); higher = more cells survive
Ibrutinib + Phenformin = compound: C=CC(=O)N1CCC[C@@H](n2nc(-c3ccc(Oc4ccccc4)cc3)c3c(N)ncnc32)C1 [Ibrutinib] + N=C(N)NC(=N)NCCc1ccccc1 [Phenformin] (partner 250 µM)
Outline: (§1)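 Lung cancer cell lines were seeded in 1536-well plates and dosed by pin tool the next day, with either a single drug or a fixed anchor-drug dose combined with five library-drug doses (not always all listed) spaced in √10 steps. Five days later, one step fixed the cells and stained their nuclei (final 0.05% Triton X-100, 1% formaldehyde, 1 ug/ml Hoechst), and nuclei were counted on 4× images. Relative viability is the nuclei count in treated wells divided by the count in vehicle wells, and each value is the median of duplicate plates.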

Ibrutinib + Decitabine = compound: C=CC(=O)N1CCC[C@@H](n2nc(-c3ccc(Oc4ccccc4)cc3)c3c(N)ncnc32)C1 [Ibrutinib] + Nc1ncn([C@H]2C[C@H](O)[C@@H](CO)O2)c(=O)n1 [Decitabine] (partner 2 µM)
Outline: as §1

BMX-IN-1 + Alpelisib = compound: C=CC(=O)Nc1cc(-n2c(=O)ccc3cnc4ccc(-c5ccc(NS(C)(=O)=O)cc5)cc4c32)ccc1C [BMX-IN-1] + Cc1nc(NC(=O)N2CCC[C@H]2C(N)=O)sc1-c1ccnc(C(C)(C)C(F)(F)F)c1 [Alpelisib] (partner 2 µM)
Outline: as §1

PAC-1 + Lapatinib = compound: C=CCc1cccc(/C=N/NC(=O)CN2CCN(Cc3ccccc3)CC2)c1O [PAC-1] + CS(=O)(=O)CCNCc1ccc(-c2ccc3ncnc(Nc4ccc(OCc5cccc(F)c5)c(Cl)c4)c3c2)o1 [Lapatinib] (partner 2 µM)
Outline: as §1

Cell Line	relative viability (Ibrutinib + Phenformin; first compound 0.005 µM)	relative viability (Ibrutinib + Phenformin; first compound 0.01581 µM)	relative viability (Ibrutinib + Phenformin; first compound 0.05 µM)	relative viability (Ibrutinib + Phenformin; first compound 0.1581 µM)	relative viability (Ibrutinib + Phenformin; first compound 0.5 µM)	relative viability (Ibrutinib + Decitabine; first compound 0.005 µM)	relative viability (Ibrutinib + Decitabine; first compound 0.01581 µM)	relative viability (Ibrutinib + Decitabine; first compound 0.05 µM)	relative viability (Ibrutinib + Decitabine; first compound 0.5 µM)	relative viability (BMX-IN-1 + Alpelisib; first compound 0.02 µM)	relative viability (BMX-IN-1 + Alpelisib; first compound 0.2 µM)	relative viability (BMX-IN-1 + Alpelisib; first compound 0.6325 µM)	relative viability (BMX-IN-1 + Alpelisib; first compound 2 µM)	relative viability (PAC-1 + Lapatinib; first compound 0.02 µM)	relative viability (PAC-1 + Lapatinib; first compound 0.06325 µM)	relative viability (PAC-1 + Lapatinib; first compound 0.2 µM)	relative viability (PAC-1 + Lapatinib; first compound 2 µM)	relative viability (Ibrutinib + Decitabine; first compound 0.1581 µM)
NCI-H2085	0.584	0.691	0.616	0.589	0.495	0.57	0.56	0.588	0.568	0.944	0.981	0.834	0.917	0.756	0.728	0.707	0.909	–
HCC-78	0.541	0.787	0.575	0.616	0.559	–	0.824	0.677	0.702	0.355	0.319	0.391	0.175	0.753	0.822	0.657	1.05	0.543
NCI-H647	–	0.467	0.411	0.592	0.605	0.341	0.331	0.411	0.409	1.25	1.32	1.36	0.974	0.851	1.05	0.866	0.934	0.244
NCI-H1299	–	–	–	–	–	–	–	–	–	1.14	1.17	1.1	1.16	0.981	0.967	0.975	0.949	–
LU99A	0.889	0.8	0.837	1.05	0.846	0.857	0.796	0.947	0.874	0.482	0.659	0.526	0.532	1.11	1.05	0.918	0.977	0.937
A549	0.21	0.135	0.159	0.163	0.152	0.249	0.243	0.311	0.186	0.94	0.716	0.813	0.762	0.935	0.804	1	1.06	0.225
HARA	0.445	0.377	0.357	0.406	0.331	0.5	0.486	0.376	0.264	1.04	0.883	0.787	0.846	0.698	0.875	0.796	0.905	0.468
NCI-H1944	0.202	0.176	0.195	0.177	0.182	0.426	0.363	0.413	0.372	0.858	0.931	0.921	0.798	0.754	0.798	0.768	0.867	0.433
LCLC-103H	0.334	0.282	0.3	0.369	0.275	0.685	0.705	0.754	0.725	1.01	0.972	1.09	0.875	–	–	–	–	0.759
NCI-H1792	–	0.449	–	0.206	0.171	–	0.584	0.558	0.441	0.585	0.473	0.579	0.684	0.978	0.91	0.923	0.934	0.591
Calu-6	–	–	–	–	–	–	–	–	–	0.974	1.13	1.15	0.919	1.06	1.08	1.01	1.18	–
SW 900	–	–	0.588	0.669	0.618	0.401	0.509	0.412	0.458	–	–	–	–	–	–	–	–	0.432
LOU-NH91	0.59	0.642	0.557	0.711	0.45	0.786	0.745	0.762	0.648	–	0.686	0.768	0.709	0.723	0.82	0.749	0.782	0.807
HCC-366	0.63	0.595	0.593	0.543	0.665	0.422	0.305	0.314	0.326	0.704	0.575	0.412	0.354	1.07	1.03	1.06	0.976	0.346
CAL-12T	0.546	0.447	0.362	0.651	0.35	–	–	–	–	1.74	1.27	1.04	1.32	0.604	0.788	0.665	0.599	–
NCI-H1355	0.419	0.463	0.485	0.469	0.427	–	0.355	0.367	0.363	0.906	0.943	0.865	0.786	0.97	0.977	0.929	1.11	0.318
ABC-1	0.185	0.271	0.214	0.24	0.29	0.973	0.929	–	1.19	0.98	1.2	1.22	1.12	1.35	1.22	1.18	1.07	–
NCI-H2405	0.383	0.384	0.387	0.264	0.369	0.622	0.715	–	0.682	0.816	0.755	0.747	0.766	1.03	1.17	1.14	1.24	–
NCI-H1648	–	–	–	–	–	0.509	0.434	0.518	0.364	–	–	–	–	–	–	–	–	0.433
NCI-H650	0.457	0.456	0.372	0.492	0.493	0.384	0.325	0.335	0.319	1.2	1.19	1.27	1.1	1.09	1.05	0.668	0.747	0.37
NCI-H2228	0.378	–	0.346	0.263	0.285	–	–	–	–	0.906	1.04	1.16	0.822	1.26	1.25	1.02	1.23	–
EPLC-272H	0.314	0.286	0.283	0.274	0.207	–	0.318	0.327	0.275	0.973	1.15	1.08	0.94	–	1.2	0.978	0.942	0.381
